Assay results as given in patent publication US20110059953A1, “COMPOUNDS FOR USE IN STABILIZING P53 MUTANTS” (priority 2008, published 2011).

Target: T1, T-p53C-Y220C (Homo sapiens, UniProt P04637, M133L/N239Y/N268D/V203A/Y220C)
T1 construct: For all other experiments, the DNA coding for residues 94-312 of T-p53C was inserted into a modified pET24a(+) vector; 6xHis tag + B. stearothermophilus dihydrolipoyl acetyltransferase lipoyl domain (aa 1-85) + TEV site (N, cleaved yes); made in house; host or cells: Escherichia coli BL21 (DE3) or C41 (DE3)
Assay: Thermal denaturation using fluorescence (Sypro Orange)
Assay type: binding
Settings: 10 μM protein
Method: This was by an adaption of the classical procedure (e.g. ref A6). Thermal unfolding was monitored by the binding of the dye Sypro Orange (5×) using a Rotor-gene 6000 (Corbett Life Science) at 270 K/h in 25 mM NaPi, 150 mM NaCl and 5 mM DTT, pH 7.2 with a protein concentration of 10 μM.
(§1) Where listed, S.E. is the calculated standard error.
as §1

Compound | ΔTm (° C.) (further compounds) | ΔTm (° C.) (further studies on compounds described above)
CCn1c2ccccc2c2cc(NC(=O)CN(C)CC(=O)Nc3ccc(N4CCOCC4)cc3)ccc21 [PK122] | 0.28 °C | 
CCCN1CCN(CC(=O)Nc2ccc3c(c2)c2ccccc2n3CC)CC1 [PK126] | 0.23 °C | 
CCn1c2ccccc2c2cc(CN(C)c3ccc4nnnn4n3)ccc21 [PK157] | 0.12 °C | 
CCn1c2ccccc2c2cc(NC(=O)CN3C(=O)NC4(CCCCC4)C3=O)ccc21 [PK165] | 0.24 °C | 
CCn1c2ccccc2c2cc(CN3CCCN(C)CC3)ccc21 [PK175] | 0.395 °C | 
CCn1c2ccccc2c2cc(CN3CCc4ccccc4C3)ccc21 [PK176] | 0.455 °C | 
CCn1c2ccccc2c2cc(CN3CCN(C)CC3)ccc21 [PK177] | 0.2 °C | 
CCn1c2ccccc2c2cc(CN(C)CC(O)c3ccccc3)ccc21 (stereo not drawn) [PK186] | 0.18 °C | 
CCn1c2ccccc2c2cc(CN3CCOCC3)ccc21 [PK190] | 0.15 °C | 
CCn1c2ccccc2c2cc(CN3CCN(Cc4ccccc4C(F)(F)F)CC3)ccc21 [PK197] | 0.08 °C | 
CCn1c2ccccc2c2cc(CN3CCN(Cc4cc(OC)ccc4O)CC3)ccc21 [PK202] | 0.17 °C | 
CCn1c2ccccc2c2cc(CNCCN3CCOCC3)ccc21 [PK208] | 0.35 °C | 
CCn1cc(C(=O)CN2CCc3ccccc3C2)c2ccccc21 [PK212] | 0.387 °C | 
CCn1c2ccccc2c2cc(CN3CCN(S(=O)(=O)c4ccccc4)CC3)ccc21 [PK215] | 0.17 °C | 
CCn1c2ccccc2c2cc(CN3CCCC(C4NC(=O)NC4C)C3)ccc21 (stereo not drawn) [PK218] | 0.31 °C | 
CCn1cc(C2CC3CN(C)C(=O)C34CCCN24)c2ccccc21 (stereo not drawn) [PK222] | 0.14 °C | 
CNCc1ccc2c(c1)c1ccccc1n2CCCl [PK229] | 0.7 °C | 
CCn1c2ccccc2c2cc(CNCC(F)(F)F)ccc21 [PK230] | 0.4 °C | 
CNCc1ccc2c(c1)c1ccccc1n2CCBr [PK232] | 0.39 °C | 
CNCc1ccc2c(c1)c1ccccc1n2CCS [PK234] | 0.28 °C | 
CCn1c(-c2cn(CC)c3ccccc23)n[nH]c1=S [PK236] | 0.3 °C | 

Compound | ΔTm (° C.) (further compounds) | ΔTm (° C.) (further studies on compounds described above)
CCn1cc(C(=O)Nc2ccc(OC)cc2)c2ccccc21 [PK237] | 0.2 °C | 
CCn1cc(C=C(C#N)C#N)c2ccccc21 [PK238] | 0.2 °C | 
CCn1cc(C=C(C#N)C(N)=O)c2ccccc21 [PK240] | 0.2 °C | 
CCn1cc(C(=O)O)c2ccccc21 [PK242] | 0.16 °C | 
Cc1c(C=O)c2ccccc2n1C [PK243] | 0.2 °C | 
CCOC(=O)c1c(C)n(CC)c2ccc(OC(=O)Nc3ccc(Cl)cc3)cc12 [PK246] | 0.31 °C | 
CCOC(=O)c1c(C)n(CC)c2cc(Br)c(OC)cc12 [PK248] | 0.21 °C | 
Cn1cc(NN)c2ccccc21 [PK253] | 0.093 °C | 
CCn1cc(C(=O)OC(C)C(=O)Nc2cc(C)on2)c2ccccc21 (stereo not drawn) [PK270] | 0.11 °C | 
CCn1cc(C(=O)OCC(=O)NC(=O)NCc2ccco2)c2ccccc21 [PK273] | 0.28 °C | 
COc1ccc2c(c1)c(C(=O)NCCc1ccccn1)c(C)n2C1CC1 [PK276] | 0.29 °C | 
COc1ccc2c(c1)c(C(=O)NC(C)C(C)C)c(C)n2C1CC1 (stereo not drawn) [PK277] | 0.34 °C | 
CCn1cc(C(=O)OCC(=O)c2ccc[nH]2)c2ccccc21 [PK279] | 0.24 °C | 
[2H]C(=O)N1CCN(c2ncccn2)CC1 [PK283] | 0.19 °C | 
[2H]C(=O)N1CCN(Cc2ccccc2)CC1 [PK285] | 0.2 °C | 
[2H]C(=O)N1CCc2[nH]c3ccccc3c2C1 [PK293] | 0.3741 °C | 
COc1ccc2c(c1)c(C(=O)OC(C(N)=O)c1ccccc1)c(C)n2C1CC1 (stereo not drawn) [PK294] | 0.064 °C | 
[2H]C(=O)Nc1ccc(N2CCN(C)CC2)cc1C [PK295] | 0.244 °C | 
CCn1cc(C(=O)OCc2nc(N)nc(Nc3ccccc3)n2)c2ccccc21 [PK301] | 0.3 °C | 
CCOC(=O)c1c(C)n(C2CC2)c2ccc(OC(=O)C3COc4ccccc4O3)cc12 (stereo not drawn) [PK305] | 0.26 °C | 
CCn1cc(C(=O)NCc2cccc(S(=O)(=O)N3CCOCC3)c2)c2ccccc21 [PK306] | 0.26 °C | 

Now from value to compound:

ΔTm (° C.) (further compounds) | ΔTm (° C.) (further studies on compounds described above) | Compound
0.195 °C |  | CCn1c2ccccc2c2cc(NC(=O)COc3ccc(S(=O)(=O)N4CCOCC4)cc3)ccc21 [PK094]
0.335 °C |  | CCn1c2ccccc2c2cc(NC(=O)COC(=O)CNC(=O)c3ccc([N+](=O)[O-])cc3)ccc21 [PK108]
0.36 °C |  | CCOC(=O)/C=C/C(=O)OCC(=O)Nc1ccc2c(c1)c1ccccc1n2CC [PK113]
0.365 °C |  | CCn1c2ccccc2c2cc(NC(=O)CN3C(=O)NC4(CCCC4)C3=O)ccc21 [PK116]
0.28 °C |  | CCn1c2ccccc2c2cc(NC(=O)COC(=O)Cn3nc(C)c([N+](=O)[O-])c3C)ccc21 [PK118]
0.24 °C |  | CCn1c2ccccc2c2cc(NC(=O)CN3CCOCC3)ccc21 [PK128]
0.2 °C |  | CCn1c2ccccc2c2cc(NC(=O)CO)ccc21 [PK132]
0.145 °C |  | CCn1c2ccccc2c2cc(NC(=O)C(C)OC(=O)c3n[nH]c(=O)c4ccccc34)ccc21 (stereo not drawn) [PK133]
0.083 °C |  | CCn1c2ccccc2c2cc(NC(=O)CCCC(=O)O)ccc21 [PK135]
0.14 °C |  | CCn1c2ccccc2c2cc(NC(=O)CN3CCC(C(N)=O)CC3)ccc21 [PK151]
0.16 °C |  | CCn1c2ccccc2c2cc(NC(=O)C3=COCCO3)ccc21 [PK153]
0.27 °C | 0.24 °C | CCn1c2ccccc2c2cc(NC(=O)COc3ccc([N+](=O)[O-])nc3)ccc21 [PK163]
0.2 °C |  | CCOC(=O)c1c(C)n(C)c2ccc(O)cc12 [PK241]
0.14 °C |  | CCOC(=O)c1c(C)n(C)c2ccc(OCCN(C)C)cc12 [PK250]
0.43 °C |  | [2H]NNS(=O)(=O)c1ccc(OC(F)(F)F)cc1 [PK254]
0.26 °C |  | [2H]NNS(=O)(=O)c1cccc(C(F)(F)F)c1 [PK255]
0.1 °C |  | [2H]C(=O)OCC(=O)NC(=O)NCC=C [PK256]
0.1 °C |  | [2H]C(=O)OCC(=O)NCC(F)(F)F [PK258]
0.06 °C |  | [2H]C(=O)OC(C)C(=O)NC(N)=O (stereo not drawn) [PK263]
0.19 °C |  | [2H]C(=O)OCC(=O)Nc1cc(C)on1 [PK264]
0.18 °C |  | [2H]C(=O)OCC(=O)NC(=O)NCC [PK266]
0.31 °C |  | [2H]C(=O)OCC(=O)NC(=O)NC [PK268]
0.15 °C |  | [2H]C(=O)OCC(=O)NC(=O)NC1CCCC1 [PK269]
0.44 °C |  | CCn1cc(C(=O)Nc2cccc(S(=O)(=O)N(C)C)c2)c2ccccc21 [PK272]
0.42 °C |  | [2H]C(=O)Nc1cc(S(=O)(=O)N2CCN(C)CC2)ccc1OC [PK280]
0.43 °C |  | [2H]NNS(=O)(=O)c1ccc(C(=O)OC)cc1 [PK281]
0.23 °C |  | [2H]C(=O)OC(CC)C(=O)Nc1cc(C)on1 (stereo not drawn) [PK284]
0.24 °C |  | [2H]C(=O)OC(C)c1nc(N)nc(N(C)C)n1 (stereo not drawn) [PK286]
0.154 °C |  | [2H]C(=O)Nc1ccc(OC)c(S(N)(=O)=O)c1 [PK292]
